This is an account of results in patent publication US20250277001A1, “PEPTIDE DERIVATIVES AND RELATED USES AS OREXIN AGONISTS” (CENTESSA PHARMACEUTICALS (UK) LIMITED, priority 2022, published 2025).

Experiment [1] deals with T1, human orexin type 1 receptor (hOX1R) (Homo sapiens, UniProt O43613).
T1 construct: expressed in transfected cells
T1 sequence (O43613 1-425): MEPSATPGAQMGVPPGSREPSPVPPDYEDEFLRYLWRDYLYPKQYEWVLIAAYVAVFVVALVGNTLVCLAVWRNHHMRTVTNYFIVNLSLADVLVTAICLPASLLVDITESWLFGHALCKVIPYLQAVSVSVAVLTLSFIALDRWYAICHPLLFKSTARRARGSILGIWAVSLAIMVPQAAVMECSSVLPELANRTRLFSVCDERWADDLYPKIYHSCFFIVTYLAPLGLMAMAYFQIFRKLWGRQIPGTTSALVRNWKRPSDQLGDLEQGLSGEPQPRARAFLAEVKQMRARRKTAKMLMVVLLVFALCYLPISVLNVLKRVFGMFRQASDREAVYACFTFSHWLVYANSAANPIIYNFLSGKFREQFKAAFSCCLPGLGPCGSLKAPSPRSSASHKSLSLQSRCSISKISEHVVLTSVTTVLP
The experiment is described as follows: Measurement of orexin type 1 receptor agonist activity (CHO cells, FLIPR TETRA intracellular Ca2+). It is filed as cell-based. The source says:
(§1) In some embodiments, the assay uses cells stably expressing either human orexin type 2 or human orexin type 1 receptor. In some embodiments, the cells are obtained by inserting the Orexin receptor cDNA into pcDNA3.1(+) plasmid vector, identifying clones by G418 drug resistance selection, and/or growing a single clone for OX2R-CHO and OX1R-CHO in bulk. In some embodiments, the assay is detected using Fluorescent Imaging Plate Reader TETRA (FLIPR TETRA: manufactured by Molecular Devices). In some embodiments, the agonist activity of the test peptide is calculated assuming that the fluorescence value of the well containing only the dilution buffer is 0% and the fluorescence value of the well containing 10 nM human orexin A (Tocris) buffer is 100%.
(§2) Stable cell line generation. Obtainment of cells stably expressing either human orexin type 2 or human orexin type 1 receptor: to obtain a stable cell line the Orexin receptor cDNA was inserted into pcDNA3.1(+) plasmid vector and clones identified by G418 drug resistance selection. […] A single clone for OX2R-CHO and OX1R-CHO were grown in bulk and frozen to generate a cell bank for routine screening.
(§3) Measurement of orexin type 1 receptor agonist activity. Chinese hamster ovary (CHO) cells expressing human orexin type 1 receptor (hOX1R) were seeded in each well of 384 well black clear bottom plates (BD Flacon) at 10,000 cells per well and cultured for 24 h in an Ham's F12 (Gibco) medium containing 10% fetal calf serum (Sigma Aldrich) under the conditions of 37° C., 5% CO2. After removal of the medium, 50 μL of assay buffer 1 (0.1% bovine serum albumin (Sigma Aldrich), 20 mM HEPES (Molecular Dimensions), […] probenecid (Sigma Aldrich), 1× Calcium 5 dye (Molecular Devices) in Hank's balanced salt solution (Invitrogen)) was added, and the cells were incubated for 60 min under the conditions of 37° C., 5% CO2. A test peptide was dissolved in dimethyl sulfoxide (Sigma Aldrich) to 1 mM, and then diluted with assay buffer 2 (20 mM HEPES, Hank's balanced salt solution, 0.1% bovine serum albumin). For the reaction, a test peptide solution (10 μl) was added using Fluorescent Imaging Plate Reader TETRA (FLIPR TETRA: manufactured by Molecular Devices), a fluorescence value (excitation wavelength 488 nm, measurement wavelength 570 nm) of each well was measured every one second for 2 min, and the agonist activity was determined using the area of the fluorescence value as an indicator of intracellular Ca^2+ concentration. The agonist activity of the test peptide was calculated assuming that the fluorescence value of the well added with only the dilution buffer was 0% and the fluorescence value of the well added with 10 nM human orexin A (Tocris) buffer was 100%. As used herein, Emax indicates the value at 1 μM concentration when orexin A is converted to a full agonist (maximum value of agonist activity: 100%).

Experiment [2] concerns the target T2, human orexin type 2 receptor (hOX2R) (Homo sapiens, UniProt O43614).
T2 construct: expressed in transfected cells
T2 sequence (O43614 1-444): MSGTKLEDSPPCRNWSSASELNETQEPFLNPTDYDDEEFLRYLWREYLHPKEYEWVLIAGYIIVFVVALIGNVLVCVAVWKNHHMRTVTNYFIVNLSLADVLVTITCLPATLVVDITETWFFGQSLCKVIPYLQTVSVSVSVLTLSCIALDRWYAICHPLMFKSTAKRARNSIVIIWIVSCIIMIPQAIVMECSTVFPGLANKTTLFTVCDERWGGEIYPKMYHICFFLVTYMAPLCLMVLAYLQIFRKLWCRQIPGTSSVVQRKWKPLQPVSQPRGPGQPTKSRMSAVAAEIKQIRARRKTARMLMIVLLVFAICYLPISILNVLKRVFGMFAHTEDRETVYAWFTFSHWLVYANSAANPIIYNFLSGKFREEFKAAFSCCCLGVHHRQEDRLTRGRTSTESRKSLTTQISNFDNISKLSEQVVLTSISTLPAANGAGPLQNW
The experiment is described as follows: Measurement of orexin type 2 receptor agonist activity (CHO cells, FLIPR TETRA intracellular Ca2+). It is filed as cell-based.
Excerpt: as §1, §2
as §3, with “type 2” for “type 1”, “receptor (hOX2R)” for “receptor (hOX1R) were”

Setting [3] is: CHO cells expressing hOX1R, Ca2+ fluorescence, read-out: hOX1 pEC50 (converted).
[4] abbreviates: CHO cells expressing hOX2R, Ca2+ fluorescence, read-out: hOX2 pEC50 (converted).

Where two headings read alike, the source gives them in different places. Where a SMILES comes first, the peptide text is derived from it. [ ]: non-standard residue; d: D form. The star is where a group is joined. Malonyl(2,2-Me2,histaminyl) = CC(C)(C(=O)NCCc1cnc[nH]1)C(=O)*; hArg(Et2) = CCN=C(NCC)NCCCC[C@H](N)C(=O)O; d(hArg) = N=C(N)NCCCC[C@@H](N)C(=O)O; Gly(NCH2CH2Ph) = O=C(O)CNCCc1ccccc1; Hyp = O=C(O)[C@@H]1C[C@@H](O)CN1; hArg = N=C(N)NCCCC[C@H](N)C(=O)O; NMeN = CN[C@@H](CC(N)=O)C(=O)O; Aoc(2) = CCCCCC[C@H](N)C(=O)O; Phg = N[C@H](C(=O)O)c1ccccc1; Nle = CCCC[C@H](N)C(=O)O

For the molecule `CCCCCC[C@H](NC(=O)[C@@H](NC(=O)[C@H](CC(C)C)NC(=O)[C@@H](NC(=O)CNC(=O)[C@@H](NC(=O)[C@H](C)NC(=O)[C@@H]1C[C@@H](O)CN1C(=O)[C@H](CC(N)=O)N(C)C(=O)CN(CCc1ccccc1)C(=O)[C@H](CCCNC(=N)N)NC(=O)[C@H](CCCNC(=N)N)NC(=O)[C@@H]1C[C@@H](O)CN1C(=O)[C@@H]1C[C@@H](O)CN1C(=O)[C@@H]1C[C@@H](O)CN1)c1ccccc1)[C@@H](C)CC)[C@@H](C)O)C(N)=O` [compound 16] (H-[Hyp][Hyp][Hyp]RR[Gly(NCH2CH2Ph)][NMeN][Hyp]A[Phg]GILT[Aoc(2)]-NH2), the figures for the EC50 in experiment [1] (setting [3]) and in experiment [2] (setting [4]) were above 10 nM and below 0.1 nM, respectively.
`CCCCCC[C@H](NC(=O)[C@@H](NC(=O)[C@H](CC(C)C)NC(=O)[C@@H](NC(=O)CNC(=O)[C@@H](NC(=O)[C@H](C)NC(=O)[C@H](Cc1c[nH]cn1)NC(=O)[C@H](CC(N)=O)NC(=O)CN(CCc1ccccc1)C(=O)[C@H](CCCCNC(=NCC)NCC)NC(=O)[C@@H]1CCCN1C(=O)[C@H](CCCCNC(=N)N)NC(=O)[C@H](CCC(N)=O)NC(=O)C(C)(C)C(=O)NCCc1cnc[nH]1)c1ccccc1)[C@@H](C)CC)[C@@H](C)O)C(N)=O` [compound 1] ({Malonyl(2,2-Me2,histaminyl)}-Q[hArg]P[hArg(Et2)][Gly(NCH2CH2Ph)]NHA[Phg]GILT[Aoc(2)]-NH2): the results for the EC50 in experiment [1] and in experiment [2] were above 10 nM and below 0.1 nM, respectively.
In the same order, the values of `CCCCCC[C@H](NC(=O)[C@@H](NC(=O)[C@H](CC(C)C)NC(=O)[C@@H](NC(=O)CNC(=O)[C@@H](NC(=O)[C@H](C)NC(=O)[C@H](Cc1c[nH]cn1)NC(=O)[C@H](CC(N)=O)NC(=O)CN(CCc1ccccc1)C(=O)[C@H](CCCNC(=N)N)NC(=O)[C@@H]1CCCN1C(=O)[C@H](CCCCNC(=N)N)NC(=O)[C@H](CCC(N)=O)NC(=O)C(C)(C)C(=O)NCCc1cnc[nH]1)c1ccccc1)[C@@H](C)CC)[C@@H](C)O)C(N)=O` [compound 2] ({Malonyl(2,2-Me2,histaminyl)}-Q[hArg]PR[Gly(NCH2CH2Ph)]NHA[Phg]GILT[Aoc(2)]-NH2) are above 10 nM and below 0.1 nM.
For the molecule `CCCC[C@H](NC(=O)[C@@H](NC(=O)[C@H](CC(C)C)NC(=O)[C@@H](NC(=O)CNC(=O)[C@H](C)NC(=O)[C@H](C)NC(=O)[C@H](Cc1c[nH]cn1)NC(=O)[C@H](CC(N)=O)NC(=O)CNC(=O)[C@H](CO)NC(=O)[C@H](C)NC(=O)[C@H](Cc1c[nH]c2ccccc12)NC(=O)C(C)(C)C(=O)NCCc1cnc[nH]1)[C@@H](C)CC)[C@@H](C)O)C(N)=O` [SEQ ID NO:7, CAP-TRP-ALA-SER-GLY-ASN-HIS-ALA-ALA-GLY-ILE-LEU-THR-NLE-NH2] ({Malonyl(2,2-Me2,histaminyl)}-WASGNHAAGILT[Nle]-NH2), the EC50 in experiment [1] (13 amino acid sequences, Example 4, read-out: OX1 pEC50 (converted)) is above 316 nM; in experiment [2] (13 amino acid sequences, Example 4, read-out: OX2 pEC50 (converted)), above 1.58 nM.
On to `CCCCCC[C@H](NC(=O)[C@@H](NC(=O)[C@H](CC(C)C)NC(=O)[C@@H](NC(=O)CNC(=O)[C@@H](NC(=O)[C@H](C)NC(=O)[C@@H]1C[C@@H](O)CN1C(=O)[C@H](CC(N)=O)NC(=O)CN(CCc1ccccc1)C(=O)[C@H](CCCNC(=N)N)NC(=O)[C@H](CCCNC(=N)N)NC(=O)[C@@H]1C[C@@H](O)CN1C(=O)[C@@H]1C[C@@H](O)CN1C(=O)[C@@H]1C[C@@H](O)CN1)c1ccccc1)[C@@H](C)CC)[C@@H](C)O)C(N)=O` [compound 15] (H-[Hyp][Hyp][Hyp]RR[Gly(NCH2CH2Ph)]N[Hyp]A[Phg]GILT[Aoc(2)]-NH2), for which the EC50 in experiment [1] (setting [3]) was 1 to 10 nM; in experiment [2] (setting [4]), below 0.1 nM.
With `CCCCCC[C@H](NC(=O)[C@@H](NC(=O)[C@H](CC(C)C)NC(=O)[C@@H](NC(=O)CNC(=O)[C@@H](NC(=O)[C@H](C)NC(=O)[C@@H]1C[C@@H](O)CN1C(=O)[C@H](CC(N)=O)N(C)C(=O)CN(CCc1ccccc1)C(=O)[C@H](CCCNC(=N)N)NC(=O)[C@H](CCCNC(=N)N)NC(=O)[C@H]1CCCN1C(=O)[C@@H](CCCCNC(=N)N)NC(=O)[C@@H](CCC(N)=O)NC(=O)C(C)(C)C(=O)NCCc1cnc[nH]1)c1ccccc1)[C@@H](C)CC)[C@@H](C)O)C(N)=O` [compound 18] ({Malonyl(2,2-Me2,histaminyl)}-[dQ][d(hArg)][dP]RR[Gly(NCH2CH2Ph)][NMeN][Hyp]A[Phg]GILT[Aoc(2)]-NH2), the EC50 in experiment [1] is above 10 nM; in experiment [2] it was below 0.1 nM.
For the molecule `CCCCCC[C@H](NC(=O)[C@@H](NC(=O)[C@H](CC(C)C)NC(=O)[C@@H](NC(=O)CNC(=O)[C@@H](NC(=O)[C@H](C)NC(=O)[C@@H]1C[C@@H](O)CN1C(=O)[C@H](CC(N)=O)NC(=O)CN(CCc1ccccc1)C(=O)[C@H](CCCNC(=N)N)NC(=O)[C@H](CCCNC(=N)N)NC(=O)[C@@H]1CCCN1C(=O)[C@H](CCCCNC(=N)N)NC(=O)[C@@H](CCC(N)=O)NC(=O)C(C)(C)C(=O)NCCc1cnc[nH]1)c1ccccc1)[C@@H](C)CC)[C@@H](C)O)C(N)=O` [compound 20] ({Malonyl(2,2-Me2,histaminyl)}-[dQ][hArg]PRR[Gly(NCH2CH2Ph)]N[Hyp]A[Phg]GILT[Aoc(2)]-NH2), the EC50 in experiment [1] is 1 to 10 nM; in experiment [2], below 0.1 nM.
As for `CCCCCC[C@H](NC(=O)[C@@H](NC(=O)[C@H](CC(C)C)NC(=O)[C@@H](NC(=O)CNC(=O)[C@@H](NC(=O)[C@H](C)NC(=O)[C@@H]1C[C@@H](O)CN1C(=O)[C@H](CC(N)=O)N(C)C(=O)CN(CCc1ccccc1)C(=O)[C@H](CCCNC(=N)N)NC(=O)[C@@H]1CCCN1C(=O)[C@@H](CCCCNC(=N)N)NC(=O)[C@H](CCC(N)=O)NC(=O)C(C)(C)C(=O)NCCc1cnc[nH]1)c1ccccc1)[C@@H](C)CC)[C@@H](C)O)C(N)=O` [compound 5] ({Malonyl(2,2-Me2,histaminyl)}-Q[d(hArg)]PR[Gly(NCH2CH2Ph)][NMeN][Hyp]A[Phg]GILT[Aoc(2)]-NH2), the EC50 in experiment [1] was above 10 nM; in experiment [2] it was below 0.1 nM.
